Measured values as given in PMC4330097, “Competitive Binding of a Benzimidazole to the Histone-Binding Pocket of the Pygo PHD Finger” (ACS Chemical Biology, 2014).
Blank lines part the entries; values can stand above or below the molecule they belong to. No end group written: not given here. Me2 = dimethyl on the lysine side chain (dimethyllysine)

Tests used:
[1] = molecular target: T1, Pygo2 PHD finger (PHD–HD1 complex) (Homo sapiens, UniProt Q9BRQ0); assay: HSQC NMR chemical shift perturbation; type: binding; design: PHD–HD1 complex; with B9L HD1 (BCL9L)
T1 sequence (Q9BRQ0 327-387): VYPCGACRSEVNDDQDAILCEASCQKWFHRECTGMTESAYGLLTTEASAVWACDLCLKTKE
T1 sequence (Q86UU0 235-263 partner): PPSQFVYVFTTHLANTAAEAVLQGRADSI

[2] = molecular target: T1, Pygo2 PHD finger (PHD–HD1 complex); assay: HSQC NMR titration, intermolecular NOEs, NMR competition with H3 peptide; type: binding; design: with B9L HD1 (BCL9L)
Text: HSQC NMR titration, intermolecular NOEs, NMR competition with H3 peptide on Pygo2 PHD finger (PHD–HD1 complex) | estimated affinities of CF16 and CF18 for the K4me pocket appear to be lower

[3] = molecular target: T1, Pygo2 PHD finger (PHD–HD1 complex); assay: biochemical; design: PHD–HD1 complex; with B9L HD1 (BCL9L); 15N-HSQC NMR titration of 15N-labelled PHD-HD1; Kd from chemical shift perturbations
Text: […]. […] Nevertheless, we asked whether CF16 could compete with a native histone H3 tail peptide for binding to the PHD–HD1 complex.

[4] = molecular target: T1, Pygo2 PHD finger (PHD–HD1 complex); assay: HSQC NMR titration, intermolecular NOEs; type: binding; design: with B9L HD1 (BCL9L)
[5] = molecular target: T2, histone H3 tail pentapeptide ARTKme2Q (Homo sapiens); assay: NMR HSQC titration
T2 chain: ARTK(Me2)Q

Molecule: CCn1c(NCCN2CCOCC2)nc2ccccc21 [CF17]
HSQC NMR chemical shift perturbation [1]: CF14, CF16, and CF17 produced altogether distinct CSP patterns

Molecule: CCn1c(N)nc2ccccc21 [CF16]
Kd [2]: ~7.3 mM

Kd [3]: 2.9 mM
Molecule: Nc1nc2cc3c(cc2s1)OCCO3 [CF7]

Molecule: CN(C)CCn1c(N)nc2ccccc21 [CF18]
Kd [4]: ~14.7 mM

Kd [5]: 0.528 mM
B1: Pygo2 PHD–B9L HD1 complex 327-387+235-263 (protein)
chain 1: AASAPPPPDKLEGGGGPAPPPAPPSTGRKQGKAGLQMKSPEKKRRKSNTQGPAYSHLTEFAPPPTPMVDHLVASNPFEDDFGAPKVGVAAPPFLGSPVPFGGFRVQGGMAGQVPPGYSTGGGGGPQPLRRQPPPFPPNPMGPAFNMPPQGPGYPPPGNMNFPSQPFNQPLGQNFSPPSGQMMPGPVGGFGPMISPTMGQPPRAELGPPSLSQRFAQPGAPFGPSPLQRPGQGLPSLPPNTSPFPGPDPGFPGPGGEDGGKPLNPPASTAFPQEPHSGSPAAAVNGNQPSFPPNSSGRGGGTPDANSLAPPGKAGGGSGPQPPPGLVYPCGACRSEVNDDQDAILCEASCQKWFHRECTGMTESAYGLLTTEASAVWACDLCLKTKEIQSVYIREGMGQLVAANDG
chain 2: MRILANKTRLPHPRRREAPGSPPLSPRGHCPPAPAKPMHPENKLTNHGKTGNGGAQSQHQNVNQGPTCNVGSKGVGAGNHGAKANQISPSNSSLKNPQAGVPPFSSLKGKVKRDRSVSVDSGEQREAGTPSLDSEAKEVAPRSKRRCVLERKQPYSGDEWCSGPDSEEDDKPIGATHNCNVADPAMAAPQLGPGQTTQLPLSESSVPGAPHGPPPGLRPDAPGGGGGGGGVPGKPPSQFVYVFTTHLANTAAEAVLQGRADSILAYHQQNVPRAKLDQAPKVPPTPEPLPLSTPSAGTPQSQPPPLPPPPPPAPGSAPPALPPEGPPEDSSQDLAPNSVGAASTGGGTGGTHPNTPTATTANNPLPPGGDPSSAPGPALLGEAAAPGNGQRSLVGSEGLSKEQLEHRERSLQTLRDIERLLLRSGETEPFLKGPPGGAGEGGPPAQAPPPPQQPPTAPPSGLKKYEEPLQSMISQTQSLGGPPLEHEVPGHPPGGDMGQQMNMMIQRLGQDSLTPEQVAWRKLQEEYYEEKRRKEEQIGLHGSRPLQDMMGMGGMMVRGPPPPYHSKPGDQWPPGMGAQLRGPMDVQDPMQLRGGPPFPGPRFPGNQIQRVPGFGGMQSMPMEVPMNAMQRPVRPGMGWTEDLPPMGGPSNFAQNTMPYPGGQGEAERFMTPRVREELLRHQLLEKRSMGMQRPLGMAGSGMGQSMEMERMMQAHRQMDPAMFPGQMAGGEGLAGTPMGMEFGGGRGLLSPPMGQSGLREVDPPMGPGNLNMNMNVNMNMNMNLNVQMTPQQQMLMSQKMRGPGDLMGPQGLSPEEMARVRAQNSSGVMGGPQKMLMPSQFPNQGQQGFSGGQGPYQAMSQDMGNTQDMFSPDQSSMPMSNVGTTRLSHMPLPPASNPPGTVHSAPNRGLGRRPSDLTISINQMGSPGMGHLKSPTLSQVHSPLVTSPSANLKSPQTPSQMVPLPSANPPGPLKSPQVLGSSLSVRSPTGSPSRLKSPSMAVPSPGWVASPKTAMPSPGVSQNKQPPLNMNSSTTLSNMEQGTLPPSGPRSSSSAPPANPPSGLMNPSLPFTSSPDPTPSQNPLSLMMTQMSKYAMPSSTPLYHNAIKTIATSDDELLPDRPLLPPPPPPQGSGPGISNSQPSQMHLNSAAAQSPMGMNLPGQQPLSHEPPPAMLPSPTPLGSNIPLHPNAQGTGGPPQNSMMMAPGGPDSLNAPCGPVPSSSQMMPFPPRLQQPHGAMAPTGGGGGGPGLQQHYPSGMALPPEDLPNQPPGPMPPQQHLMGKAMAGRMGDAYPPGVLPGVASVLNDPELSEVIRPTPTGIPEFDLSRIIPSEKPSSTLQYFPKSENQPPKAQPPNLHLMNLQNMMAEQTPSRPPNLPGQQGVQRGLNMSMCHPGQMSLLGRTGVPPQQGMVPHGLHQGVMSPPQGLMTQQNFMLMKQRGVGGEVYSQPPHMLSPQGSLMGPPPQQNLMVSHPLRQRSVSLDSQMGYLPAPGGMANLPF
